Assay results from PubChem BioAssay (NCI).
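Step 1: Grow cells in 96-well plates. Step 2: Expose to compound for 48 hours at 5 concentrations. Step 3: Interpolate endpoints linearly; if unreached, use highest concentration. GI50 = concentration required for 50% inhibition of growth. TGI is the concentration that stops growth completely.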

Tests used:
Assay in all cases: growth of human tumour cells (NCI), 48 h
HT29 colon = test system: HT29 colon
SR leukemia = test system: SR leukemia
UO-31 renal = test system: UO-31 renal
A498 renal = test system: A498 renal
NCI-H522 lung = test system: NCI-H522 lung
SF-268 CNS = test system: SF-268 CNS
HL-60(TB) leukemia = test system: HL-60(TB) leukemia
HCT-116 colon = test system: HCT-116 colon
NCI-H460 lung = test system: NCI-H460 lung
OVCAR-4 ovarian = test system: OVCAR-4 ovarian

SMILES | GI50 (HT29 colon) [µM] | TGI (HT29 colon) [µM] | GI50 (SR leukemia) [µM] | TGI (SR leukemia) [µM] | GI50 (UO-31 renal) [µM] | TGI (UO-31 renal) [µM] | GI50 (A498 renal) [µM] | TGI (A498 renal) [µM] | GI50 (NCI-H522 lung) [µM] | TGI (NCI-H522 lung) [µM] | GI50 (SF-268 CNS) [µM] | TGI (SF-268 CNS) [µM] | GI50 (HL-60(TB) leukemia) [µM] | TGI (HL-60(TB) leukemia) [µM] | GI50 (HCT-116 colon) [µM] | TGI (HCT-116 colon) [µM] | GI50 (NCI-H460 lung) [µM] | TGI (NCI-H460 lung) [µM] | GI50 (OVCAR-4 ovarian) [µM] | TGI (OVCAR-4 ovarian) [µM]
COC(=O)/C=C/c1cc(OC(C)=O)c2c(c1)C(C(=O)OC)C(c1ccc(OC(C)=O)c(OC(C)=O)c1)O2 (centres undefined) | 2.65 | > 77.5 | 0.0303 | 30.4 | 0.99 | > 72.3 | 0.948 | 5.58 | 0.0654 | 11.6 | 0.617 | > 100 | 0.0273 | 0.114 | 0.0499 | > 51.4 | 1.03 | 13.6 | 0.345 | 49.7
CCCCCCn1c(-c2ccc(C(=O)O/N=C(\N)c3ccc4c(c3)OCO4)cc2)nc(-c2ccccc2)c1-c1ccccc1 | 3.64 | 39.1 | 0.28 | 1.43 | 1.28 | 2.59 | 1.01 | 3.86 | 1.81 | 3.92 | 2.11 | 4.64 | 1.42 | 3.49 | 1.59 | 3.34 | 2.08 | 4.57 | 2.21 | 7
O=Cc1cc2c(cc1-c1cc3c(cc1C=O)OCO3)OCO2 | – | > 100 | – | 71 | – | > 100 | – | > 100 | – | > 100 | – | > 100 | – | > 100 | – | > 100 | – | > 100 | – | > 100
COc1ccc(Cl)cc1NC(=O)c1ccc(NC2=C(Cl)C(=O)N(Cc3ccccc3)C2=O)cc1 | 4.8 | > 100 | 2.76 | 9.87 | > 100 | > 100 | > 100 | > 100 | 17.5 | > 100 | 25.3 | > 100 | 9.51 | 55.3 | 37.7 | > 100 | 9.41 | > 100 | > 100 | > 100
O=C(Nc1nc(-c2c[nH]c3ccccc23)cs1)c1n[nH]c(=O)c2ccccc12 | 1.19 | > 100 | 1.61 | – | 8.46 | > 67.7 | 22 | > 100 | 3.26 | > 58.2 | 1.25 | > 46.2 | 0.777 | > 100 | 0.368 | > 44.5 | 0.451 | > 36.8 | 20.6 | > 100
